Measurements taken from patent publication US20230233569A1 (Revolution Medicines, Inc., priority 2020, published 2023).
Like-named read-outs stand apart in the source and are kept apart here.

Experiments:
Test in all cases: Ras-Raf disruption / FRET / MOA assay (BRAF RBD)
Type in all cases: biochemical
KRAS G12C = KRAS G12C (Homo sapiens, UniProt P01116+P62937, G12C); settings: with Cyclophilin A
Summary of the method: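 His6-K-Ras G12C-GMPPNP (12.5 nM), GST-BRAF RBD (50 nM) and tagless Cyclophilin A (25 μM) incubated 3 h at 25 °C with compound (10-point 3-fold series from 30 μM), pH 7.3 HEPES buffer. Anti-His Eu/anti-GST APC added for 1.5 h; decreased TR-FRET ratio vs DMSO gives IC50.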

KRAS WT = KRAS WT (Homo sapiens, UniProt P01116+P62937); settings: with Cyclophilin A
Summary of the method: (§1)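 TR-FRET in 25 mM HEPES pH 7.3, 100 mM NaCl, 5 mM MgCl2, 0.1% BSA, 0.002% Tween20 with 25 μM Cyclophilin A, 12.5 nM His6-Ras-GMPPNP, 50 nM GST-BRAF RBD; compound 10-point 3-fold series from 30 μM. After 3 h at 25 °C, Eu anti-His/APC anti-GST added for 1.5 h; IC50 from ratio decrease versus DMSO.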

NRAS G12C = NRAS G12C (Homo sapiens, UniProt P01111+P62937, G12C)
Summary of the method: as §1

NRAS WT = NRAS WT (Homo sapiens, UniProt P01111+P62937)
Summary of the method: as §1

KRAS G12S = KRAS G12S (Homo sapiens, UniProt P01116+P62937, G12S); settings: with Cyclophilin A
Summary of the method: as §1

KRAS G13D = KRAS G13D (Homo sapiens, UniProt P01116+P62937, G13D); settings: with Cyclophilin A
Summary of the method: as §1

KRAS Q61H = KRAS Q61H (Homo sapiens, UniProt P01116+P62937, Q61H)
Summary of the method: as §1

KRAS G13C = KRAS G13C (Homo sapiens, UniProt P01116+P62937, G13C); settings: with Cyclophilin A
Summary of the method: as §1

NRAS Q61K = NRAS Q61K (Homo sapiens, UniProt P01111+P62937, Q61K)
Summary of the method: as §1

KRAS G12D = KRAS G12D (Homo sapiens, UniProt P01116+P62937, G12D); settings: with Cyclophilin A
Summary of the method: as §1

KRAS G12V = KRAS G12V (Homo sapiens, UniProt P01116+P62937, G12V); settings: with Cyclophilin A
Summary of the method: as §1

NRAS Q61R = NRAS Q61R (Homo sapiens, UniProt P01111+P62937, Q61R)
Summary of the method: as §1

[1] = Ras-Raf disruption, read-out: KRAS G12C FRET data IC50
[2] = Ras-Raf disruption, read-out: KRAS WT FRET data IC50
[3] = NRAS G12C, read-out: NRAS G12C FRET data IC50
[4] = NRAS WT, read-out: NRAS WT FRET data IC50
[5] = Ras-Raf disruption, read-out: KRAS G12S FRET data IC50
[6] = Ras-Raf disruption, read-out: KRAS G13D FRET data IC50
[7] = KRAS Q61H, read-out: KRAS Q61H FRET data IC50
[8] = Ras-Raf disruption, read-out: KRAS G13C FRET data IC50
[9] = NRAS Q61K, read-out: NRAS Q61K FRET data IC50
[10] = Ras-Raf disruption, read-out: KRAS G12D FRET data IC50
[11] = Ras-Raf disruption, read-out: KRAS G12V FRET data IC50
[12] = NRAS Q61R, read-out: NRAS Q61R FRET data IC50
[13] = KRAS G12C FRET data IC50, Ras-Raf disruption
[14] = KRAS WT FRET data IC50, Ras-Raf disruption
[15] = NRAS G12C FRET data IC50, NRAS G12C
[16] = KRAS G12S FRET data IC50, Ras-Raf disruption
[17] = KRAS G13D FRET data IC50, Ras-Raf disruption
[18] = KRAS G13C FRET data IC50, Ras-Raf disruption
[19] = KRAS G12D FRET data IC50, Ras-Raf disruption
[20] = KRAS G12V FRET data IC50, Ras-Raf disruption

NRAS WT, sequence (P01111 whole entry): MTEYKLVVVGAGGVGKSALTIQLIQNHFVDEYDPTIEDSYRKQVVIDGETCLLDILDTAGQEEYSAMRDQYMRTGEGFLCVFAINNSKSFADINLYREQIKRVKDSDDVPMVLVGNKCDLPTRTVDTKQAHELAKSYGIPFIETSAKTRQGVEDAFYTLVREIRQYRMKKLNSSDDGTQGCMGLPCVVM
NRAS WT, sequence (P62937 whole entry): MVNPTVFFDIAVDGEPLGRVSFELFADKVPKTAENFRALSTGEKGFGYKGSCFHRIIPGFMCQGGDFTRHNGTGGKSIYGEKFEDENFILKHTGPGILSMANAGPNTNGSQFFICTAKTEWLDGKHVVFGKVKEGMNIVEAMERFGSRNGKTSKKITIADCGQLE
NRAS Q61K, sequence (P01111 whole entry Q61K): as the sequence (P01111 whole entry) above, with Q61K counted along it
NRAS Q61K, sequence (P62937 whole entry): as the sequence (P62937 whole entry) above
KRAS G12D, sequence (P01116 1-169 isoform P01116-2 G12D limits assumed): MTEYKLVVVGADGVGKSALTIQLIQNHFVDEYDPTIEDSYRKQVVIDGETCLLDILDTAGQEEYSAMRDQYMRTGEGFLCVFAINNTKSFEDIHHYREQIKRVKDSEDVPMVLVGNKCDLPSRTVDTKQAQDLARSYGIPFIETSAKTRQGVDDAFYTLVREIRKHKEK
KRAS G12D, sequence (P62937 whole entry): as the sequence (P62937 whole entry) above
KRAS Q61H, sequence (P01116 1-169 isoform P01116-2 Q61H limits assumed): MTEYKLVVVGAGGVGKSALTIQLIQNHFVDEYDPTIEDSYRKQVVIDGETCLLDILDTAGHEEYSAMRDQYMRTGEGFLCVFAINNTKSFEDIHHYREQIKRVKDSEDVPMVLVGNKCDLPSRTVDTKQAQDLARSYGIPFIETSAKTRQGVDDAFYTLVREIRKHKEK
KRAS Q61H, sequence (P62937 whole entry): as the sequence (P62937 whole entry) above
NRAS Q61R, sequence (P01111 whole entry Q61R): as the sequence (P01111 whole entry) above, with Q61R counted along it
NRAS Q61R, sequence (P62937 whole entry): as the sequence (P62937 whole entry) above
NRAS G12C, sequence (P01111 whole entry G12C): as the sequence (P01111 whole entry) above, with G12C counted along it
NRAS G12C, sequence (P62937 whole entry): as the sequence (P62937 whole entry) above
KRAS G13C, sequence (P01116 1-169 isoform P01116-2 G13C limits assumed): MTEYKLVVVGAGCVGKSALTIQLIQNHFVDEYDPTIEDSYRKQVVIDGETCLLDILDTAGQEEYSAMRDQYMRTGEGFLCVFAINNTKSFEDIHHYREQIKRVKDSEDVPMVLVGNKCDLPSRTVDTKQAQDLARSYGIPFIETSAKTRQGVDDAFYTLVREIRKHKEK
KRAS G13C, sequence (P62937 whole entry): as the sequence (P62937 whole entry) above
KRAS G12C, sequence (P01116 1-169 isoform P01116-2 G12C limits assumed): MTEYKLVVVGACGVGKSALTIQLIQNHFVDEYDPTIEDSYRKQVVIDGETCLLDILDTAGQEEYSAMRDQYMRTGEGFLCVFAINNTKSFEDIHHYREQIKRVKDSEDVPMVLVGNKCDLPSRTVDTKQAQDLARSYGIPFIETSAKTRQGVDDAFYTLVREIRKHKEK
KRAS G12C, sequence (P62937 whole entry): as the sequence (P62937 whole entry) above
KRAS G13D, sequence (P01116 1-169 isoform P01116-2 G13D limits assumed): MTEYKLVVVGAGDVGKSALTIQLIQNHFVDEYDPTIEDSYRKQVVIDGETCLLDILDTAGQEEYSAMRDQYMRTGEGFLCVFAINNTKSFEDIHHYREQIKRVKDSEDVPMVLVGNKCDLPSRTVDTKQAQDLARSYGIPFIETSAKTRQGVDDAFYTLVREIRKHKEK
KRAS G13D, sequence (P62937 whole entry): as the sequence (P62937 whole entry) above
KRAS WT, sequence (P01116 1-169 isoform P01116-2 limits assumed): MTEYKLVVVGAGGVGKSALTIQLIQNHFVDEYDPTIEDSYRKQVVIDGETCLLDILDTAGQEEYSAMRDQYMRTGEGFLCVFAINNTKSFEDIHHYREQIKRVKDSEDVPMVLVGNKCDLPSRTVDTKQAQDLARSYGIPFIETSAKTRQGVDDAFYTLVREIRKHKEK
KRAS WT, sequence (P62937 whole entry): as the sequence (P62937 whole entry) above
KRAS G12S, sequence (P01116 1-169 isoform P01116-2 G12S limits assumed): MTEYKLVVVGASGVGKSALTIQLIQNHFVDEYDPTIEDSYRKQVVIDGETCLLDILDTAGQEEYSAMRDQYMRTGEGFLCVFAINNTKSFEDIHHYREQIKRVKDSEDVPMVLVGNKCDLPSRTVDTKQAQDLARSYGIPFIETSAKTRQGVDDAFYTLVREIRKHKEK
KRAS G12S, sequence (P62937 whole entry): as the sequence (P62937 whole entry) above
KRAS G12V, sequence (P01116 1-169 isoform P01116-2 G12V limits assumed): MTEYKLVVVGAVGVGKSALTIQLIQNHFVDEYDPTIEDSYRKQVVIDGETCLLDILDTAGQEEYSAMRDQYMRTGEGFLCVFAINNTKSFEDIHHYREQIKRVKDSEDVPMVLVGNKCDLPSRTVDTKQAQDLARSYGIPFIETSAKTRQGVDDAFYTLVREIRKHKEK
KRAS G12V, sequence (P62937 whole entry): as the sequence (P62937 whole entry) above

SMILES | IC50 (KRAS G12C; [1]) [µM] | IC50 (KRAS WT; [2]) [µM] | IC50 (NRAS G12C; [3]) [µM] | IC50 (NRAS WT; [4]) [µM] | IC50 (KRAS G12S; [5]) [µM] | IC50 (KRAS G13D; [6]) [µM] | IC50 (KRAS Q61H; [7]) [µM] | IC50 (KRAS G13C; [8]) [µM] | IC50 (NRAS Q61K; [9]) [µM] | IC50 (KRAS G12D; [10]) [µM] | IC50 (KRAS G12V; [11]) [µM] | IC50 (NRAS Q61R; [12]) [µM] | other results
CCn1c(-c2cccnc2[C@H](C)OC)c2c3cc(ccc31)-c1cc(O)cc(c1)C[C@H](NC(=O)[C@H](C(C)C)N(C)C(=O)c1nc(NC(=O)[C@H]3CN3)cs1)C(=O)N1CCC[C@H](N1)C(=O)OCC(C)(C)C2 (atropisomer, axis not shown) [Example 212] | 0.1 to 1 | 0.1 to 1 | 0.1 to 1 | 0.1 to 1 | 0.1 to 1 | 0.1 to 1 | 0.01 to 0.1 | 0.01 to 0.1 | 0.1 to 1 | 1 to 10 | 0.1 to 1 | 0.1 to 1 | –
CCn1c(-c2cccnc2[C@H](C)OC)c2c3cc(ccc31)-c1csc(n1)C[C@H](NC(=O)[C@H](C(C)C)N(C)C(=O)N(C)CCN(C)C(=O)[C@@H]1CN1)C(=O)N1CCC[C@H](N1)C(=O)OCC(C)(C)C2 (atropisomer, axis not shown) [Example 217] | 0.01 to 0.1 | 0.1 to 1 | 0.01 to 0.1 | 0.01 to 0.1 | 0.1 to 1 | 0.1 to 1 | 0.01 to 0.1 | 0.1 to 1 | 0.01 to 0.1 | 0.1 to 1 | 0.1 to 1 | 0.1 to 1 | –
CCn1c(-c2cccnc2[C@H](C)OC)c2c3cc(ccc31)-c1cc(O)cc(c1)C[C@H](NC(=O)[C@H](C1CCCC1)N(C)C(=O)CN(C)C(=O)[C@H]1[C@@H](C3CC3)N1CCCOC)C(=O)N1CCC[C@H](N1)C(=O)OCC(C)(C)C2 (stereo partly drawn) [Example 317] | – | – | – | – | – | – | – | – | – | – | – | – | IC50 (KRAS G12C; [13]): 0.01 to 0.1 µM; IC50 (KRAS WT; [14]): 0.01 to 0.1 µM; IC50 (NRAS G12C; [15]): 0.01 to 0.1 µM; IC50 (NRAS WT): 0.01 to 0.1 µM; IC50 (KRAS G12S; [16]): 0.01 to 0.1 µM; IC50 (KRAS G13D; [17]): 0.1 to 1 µM; IC50 (KRAS Q61H): 0.01 to 0.1 µM; IC50 (KRAS G13C; [18]): 0.01 to 0.1 µM; IC50 (NRAS Q61K): 0.1 to 1 µM; IC50 (KRAS G12D; [19]): 0.1 to 1 µM; IC50 (KRAS G12V; [20]): 0.01 to 0.1 µM; IC50 (NRAS Q61R): 0.1 to 1 µM
CCn1c(-c2cccnc2[C@H](C)OC)c2c3cc(ccc31)-c1cc(O)cc(c1)C[C@H](NC(=O)[C@H](C(C)C)N(C)C(=O)[C@@H]1CCCN(C(=O)[C@H]3CN3)C1)C(=O)N1CCC[C@H](N1)C(=O)OCC(C)(C)C2 (atropisomer, axis not shown) [Example 237] | 0.01 to 0.1 | 0.01 to 0.1 | 0.01 to 0.1 | 0.01 to 0.1 | 0.01 to 0.1 | 0.1 to 1 | 0.01 to 0.1 | 0.01 to 0.1 | 0.1 to 1 | 0.1 to 1 | 0.1 to 1 | 0.1 to 1 | –
CCn1c(-c2cccnc2[C@H](C)OC)c2c3cc(ccc31)-c1cc(O)cc(c1)C[C@H](NC(=O)[C@@H](COC1CN(C(=O)[C@H]3CN3)C1)C(C)C)C(=O)N1CCC[C@H](N1)C(=O)OCC(C)(C)C2 [Example 312] | < 0.01 | 0.1 to 1 | < 0.01 | 0.1 to 1 | 1 to 10 | 1 to 10 | 0.1 to 1 | 0.1 to 1 | 1 to 10 | 1 to 10 | 1 to 10 | 1 to 10 | –
CCn1c(-c2cccnc2[C@H](C)OC)c2c3cc(ccc31)-c1csc(n1)C[C@H](NC(=O)[C@H](C(C)C)N(C)C(=O)N1CCCN(C(=O)[C@@H]3CN3)CC1)C(=O)N1CCC[C@H](N1)C(=O)OCC(C)(C)C2 (atropisomer, axis not shown) [Example 223] | 0.01 to 0.1 | 0.01 to 0.1 | 0.01 to 0.1 | 0.01 to 0.1 | 0.1 to 1 | 0.1 to 1 | 0.01 to 0.1 | 0.1 to 1 | 0.01 to 0.1 | 0.1 to 1 | 0.1 to 1 | 0.01 to 0.1 | –
CCn1c(-c2cccnc2[C@H](C)OC)c2c3cc(ccc31)-c1cc(O)cc(c1)C[C@H](NC(=O)[C@H](C(C)C)N(C)C(=O)C1CCN(S(=O)(=O)[C@@H]3CN3C)CC1)C(=O)N1CCC[C@H](N1)C(=O)OCC(C)(C)C2 (single isomer, unassigned) [Example 119] | 0.01 to 0.1 | 0.1 to 1 | 0.1 to 1 | 0.1 to 1 | 0.1 to 1 | 0.1 to 1 | 0.01 to 0.1 | 0.01 to 0.1 | 0.1 to 1 | 1 to 10 | 0.1 to 1 | 1 to 10 | –
CCn1c(-c2cccnc2[C@H](C)OC)c2c3cc(ccc31)-c1csc(n1)C[C@H](NC(=O)[C@H](C(C)C)N(C)C(=O)N1CCN(C(=O)[C@@H]3CN3)[C@@H](C)C1)C(=O)N1CCC[C@H](N1)C(=O)OCC(C)(C)C2 [Example 298] | 0.01 to 0.1 | 0.01 to 0.1 | 0.01 to 0.1 | 0.01 to 0.1 | 0.01 to 0.1 | 0.1 to 1 | 0.01 to 0.1 | 0.1 to 1 | 0.01 to 0.1 | 0.1 to 1 | 0.1 to 1 | 0.01 to 0.1 | –
CCn1c(-c2cccnc2[C@H](C)OC)c2c3cc(ccc31)-c1cc(O)cc(c1)C[C@H](NC(=O)[C@H](C(C)C)N(C)C(=O)C13CCC(CC1)N3C(=O)[C@H]1CN1)C(=O)N1CCC[C@H](N1)C(=O)OCC(C)(C)C2 [Example 202] | – | – | – | – | – | – | – | – | – | – | – | – | IC50 (KRAS G12C; [13]): 0.01 to 0.1 µM; IC50 (KRAS WT; [14]): 0.1 to 1 µM; IC50 (NRAS G12C; [15]): 0.01 to 0.1 µM; IC50 (NRAS WT): 0.1 to 1 µM; IC50 (KRAS G12S; [16]): 0.1 to 1 µM; IC50 (KRAS G13D; [17]): 0.1 to 1 µM; IC50 (KRAS Q61H): 0.01 to 0.1 µM; IC50 (KRAS G13C; [18]): 0.1 to 1 µM; IC50 (NRAS Q61K): 0.1 to 1 µM; IC50 (KRAS G12D; [19]): 0.1 to 1 µM; IC50 (KRAS G12V; [20]): 0.1 to 1 µM; IC50 (NRAS Q61R): 0.1 to 1 µM
